Values after ≈ are worked out from the molar mass of the structure shown.
Legend:
[1] = Drug metabolism in human hepatocytes assessed as loss of chlorobenzonitrile moiety in presence of glutathione; type: ADME, cell-based, Hepatocyte
[2] = Drug metabolism in dog assessed as oxidation of chlorophenyl ring; type: ADME, Canis lupus familiaris
Cytochrome P450 2C19 = Cytochrome P450 2C19 (Homo sapiens, UniProt P33261); test: Inhibition of CYP2C19 (unknown origin); type: ADME
[3] = Intrinsic clearance in rat hepatocytes assessed per 10^6 cells; type: ADME, cell-based, Hepatocyte; conditions: read-out: CLH
[4] = Volume of distribution at steady state in rat at 0.76 mg/kg, iv and 2.3 mg/kg, po; type: ADME, organism-based; conditions: in vivo, read-out: Vdss
[5] = Mutagenicity in […] by Ames test in absence of […] fraction; type: toxicity
[6] = Drug metabolism in human liver microsomes assessed as oxidation of chlorophenyl ring; type: ADME
Rattus norvegicus [7] = test: Toxicity in rat assessed as hepatocellular hypertrophy with focal necrosis at 300 mg/kg/day, po measured over 14 days by microscopic analysis; type: organism-based; conditions: in vivo, 336 h
[8] = target: Sodium channel protein type 5 subunit alpha (Homo sapiens, UniProt Q14524); test: Inhibition of human NaV1.5 expressed in HEK293 cells by patch clamp method; type: cell-based
[9] = target: Solute carrier family 22 member 6 (Homo sapiens, UniProt Q4U2R8); test: Inhibition of OAT1 (unknown origin)
Sequence of Solute carrier family 22 member 6 (Q4U2R8 whole entry): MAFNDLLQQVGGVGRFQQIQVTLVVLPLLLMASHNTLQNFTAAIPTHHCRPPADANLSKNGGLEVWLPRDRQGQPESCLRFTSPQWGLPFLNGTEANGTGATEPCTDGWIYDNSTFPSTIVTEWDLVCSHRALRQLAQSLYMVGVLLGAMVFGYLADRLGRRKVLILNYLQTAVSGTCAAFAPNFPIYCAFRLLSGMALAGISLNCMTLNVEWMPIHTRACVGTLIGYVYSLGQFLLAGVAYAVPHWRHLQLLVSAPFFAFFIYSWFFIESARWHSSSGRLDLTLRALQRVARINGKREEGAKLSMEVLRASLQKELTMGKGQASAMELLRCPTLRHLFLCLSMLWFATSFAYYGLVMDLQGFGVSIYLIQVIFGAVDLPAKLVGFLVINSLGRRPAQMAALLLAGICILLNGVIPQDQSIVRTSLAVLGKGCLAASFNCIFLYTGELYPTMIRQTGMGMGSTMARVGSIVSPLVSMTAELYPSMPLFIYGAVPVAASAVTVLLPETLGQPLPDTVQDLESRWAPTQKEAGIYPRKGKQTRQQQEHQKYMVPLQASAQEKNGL

[10] = Dissociation constant, pKa of the compound; type: physicochemical
[11] = Plasma clearance in rat at 0.76 mg/kg, iv and 2.3 mg/kg, po; type: ADME, organism-based
[12] = Unbound clearance in rat at 0.5 mg/kg, iv and 1 mg/kg, po; type: ADME, organism-based; conditions: in vivo
[13] = target: T1, Solute carrier family 22 member 12 (Homo sapiens, UniProt Q96S37); test: Inhibition of human C-terminal eGFP-tagged URAT1 long isoform expressed in CHO cells assessed as decrease in [14C]-uric acid uptake preincubated for 15 mins followed by [14C]-uric acid addition and incubated in dark for 3 hrs by scintillation counting method; type: cell-based
T1 sequence (Q96S37 whole entry): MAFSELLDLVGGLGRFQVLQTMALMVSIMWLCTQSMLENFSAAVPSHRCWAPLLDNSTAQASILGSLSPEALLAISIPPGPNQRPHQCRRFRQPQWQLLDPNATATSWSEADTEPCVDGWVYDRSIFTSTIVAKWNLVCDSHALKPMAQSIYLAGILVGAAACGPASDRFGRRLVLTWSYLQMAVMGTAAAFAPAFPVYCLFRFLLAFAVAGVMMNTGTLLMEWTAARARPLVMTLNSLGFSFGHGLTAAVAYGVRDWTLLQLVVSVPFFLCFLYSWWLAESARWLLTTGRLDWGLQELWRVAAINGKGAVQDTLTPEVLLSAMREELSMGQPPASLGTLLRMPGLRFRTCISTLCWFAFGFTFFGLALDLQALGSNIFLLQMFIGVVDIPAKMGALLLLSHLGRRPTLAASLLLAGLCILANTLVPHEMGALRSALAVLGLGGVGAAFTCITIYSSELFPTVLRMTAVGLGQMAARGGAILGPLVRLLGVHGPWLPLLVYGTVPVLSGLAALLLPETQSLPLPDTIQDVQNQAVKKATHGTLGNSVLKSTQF

Rattus norvegicus [14] = test: Toxicity in rat assessed as mortality at 300 mg/kg/day, po measured over 14 days; type: organism-based; conditions: in vivo, 336 h
[15] = target: Solute carrier family 22 member 11 (Homo sapiens, UniProt Q9NSA0); test: Inhibition of OAT4 (unknown origin)
Sequence of Solute carrier family 22 member 11 (Q9NSA0 whole entry): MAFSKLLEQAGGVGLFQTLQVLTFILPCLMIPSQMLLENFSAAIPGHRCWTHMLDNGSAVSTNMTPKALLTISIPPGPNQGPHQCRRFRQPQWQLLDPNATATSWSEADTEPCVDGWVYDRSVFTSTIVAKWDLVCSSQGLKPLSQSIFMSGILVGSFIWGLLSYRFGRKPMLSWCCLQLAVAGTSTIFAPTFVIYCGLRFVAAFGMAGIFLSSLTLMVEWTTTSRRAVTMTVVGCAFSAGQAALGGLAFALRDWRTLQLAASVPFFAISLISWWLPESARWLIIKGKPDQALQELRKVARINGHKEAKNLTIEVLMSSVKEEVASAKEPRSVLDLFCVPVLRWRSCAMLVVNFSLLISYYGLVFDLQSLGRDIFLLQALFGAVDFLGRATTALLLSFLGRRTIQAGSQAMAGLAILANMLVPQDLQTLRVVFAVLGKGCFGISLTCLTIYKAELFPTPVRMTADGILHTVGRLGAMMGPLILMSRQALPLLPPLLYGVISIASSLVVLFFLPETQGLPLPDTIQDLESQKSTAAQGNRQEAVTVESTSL

[16] = Inhibition of GABAA receptor (unknown origin); design: species or system Homo sapiens
[17] = Permeability in RRCK cells; type: ADME, cell-based, Canis lupus familiaris, MDCKII-LE; conditions: dog, MDCK; read-out: permeability
[18] = Intrinsic clearance in human hepatocytes assessed per 10^6 cells; type: ADME, cell-based, Hepatocyte; conditions: read-out: CLH
Canis familiaris [19] = test: Hepatotoxicity in female dog assessed as decrease in alanine aminotransferase levels at >= 100 mg/kg/day, po measured over 14 days; type: toxicity, organism-based, Canis lupus familiaris; conditions: in vivo, 336 h
[20] = target: Sodium channel protein type 9 subunit alpha (Homo sapiens, UniProt Q15858); test: Inhibition of NaV1.7 (unknown origin) by electrophysiology assay
Canis familiaris [21] = test: Hepatotoxicity in male dog assessed as decrease in alanine aminotransferase levels at >= 30 mg/kg/day, po measured over 14 days; type: toxicity, organism-based, Canis lupus familiaris; conditions: in vivo, 336 h
Canis familiaris [22] = test: Hepatotoxicity in male dog assessed as pathological changes at >= 30 mg/kg/day, po measured over 14 days; type: toxicity, organism-based, Canis lupus familiaris; conditions: in vivo, 336 h
Cytochrome P450 2C9 = Cytochrome P450 2C9 (Homo sapiens, UniProt P11712); test: Inhibition of CYP2C9 (unknown origin); type: ADME
Sequence of Cytochrome P450 2C9 (P11712 whole entry): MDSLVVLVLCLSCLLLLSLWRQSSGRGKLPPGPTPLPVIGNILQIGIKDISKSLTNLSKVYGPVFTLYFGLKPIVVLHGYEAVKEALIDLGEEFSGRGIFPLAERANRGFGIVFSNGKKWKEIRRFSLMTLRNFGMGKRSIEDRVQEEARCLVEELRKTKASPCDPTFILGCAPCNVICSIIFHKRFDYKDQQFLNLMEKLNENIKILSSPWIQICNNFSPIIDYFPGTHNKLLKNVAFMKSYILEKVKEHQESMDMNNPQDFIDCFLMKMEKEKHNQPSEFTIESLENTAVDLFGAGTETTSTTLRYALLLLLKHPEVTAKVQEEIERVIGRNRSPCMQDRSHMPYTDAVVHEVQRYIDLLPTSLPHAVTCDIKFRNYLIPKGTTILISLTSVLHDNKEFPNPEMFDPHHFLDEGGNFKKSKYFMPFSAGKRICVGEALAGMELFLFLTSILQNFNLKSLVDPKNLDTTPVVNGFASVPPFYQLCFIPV

[23] = Drug metabolism in rat assessed as loss of chlorobenzonitrile moiety in presence of glutathione; type: ADME
[24] = Intrinsic clearance in rat liver microsomes; type: ADME; conditions: read-out: CLH
Rattus norvegicus [25] = test: Cardiovascular toxicity in rat assessed as small biphasic change in blood pressure at 30 to 100 mg/kg, po measured over 14 days; type: organism-based; conditions: in vivo, 336 h
[26] = Cytotoxicity against THLE cells; type: toxicity, cell-based; conditions: human
[27] = Average plasma concentration in rat at 30 mg/kg, po administered as single dose measured on day 14; type: ADME, organism-based; conditions: in vivo
Canis familiaris [28] = test: Hepatotoxicity in female dog assessed as pathological changes at >= 100 mg/kg/day, po measured over 14 days; type: toxicity, organism-based, Canis lupus familiaris; conditions: in vivo, 336 h
[29] = Toxicity in po dosed dog measured assessed as drug tolerance measured over 14 days; type: organism-based, Canis lupus familiaris; conditions: in vivo, 336 h
[30] = Unbound Cmax in rat at 10 mg/kg, po administered as single dose measured on day 14; type: ADME, organism-based; conditions: in vivo
[31] = Half life in rat at 0.5 mg/kg, iv and 1 mg/kg, po; type: ADME, organism-based; conditions: in vivo
[32] = Renal clearance in rat; type: ADME; conditions: in vivo
Cytochrome P450 2D6 = Cytochrome P450 2D6 (Homo sapiens, UniProt P10635); test: Inhibition of CYP2D6 (unknown origin); type: ADME
Sequence of Cytochrome P450 2D6 (P10635 whole entry): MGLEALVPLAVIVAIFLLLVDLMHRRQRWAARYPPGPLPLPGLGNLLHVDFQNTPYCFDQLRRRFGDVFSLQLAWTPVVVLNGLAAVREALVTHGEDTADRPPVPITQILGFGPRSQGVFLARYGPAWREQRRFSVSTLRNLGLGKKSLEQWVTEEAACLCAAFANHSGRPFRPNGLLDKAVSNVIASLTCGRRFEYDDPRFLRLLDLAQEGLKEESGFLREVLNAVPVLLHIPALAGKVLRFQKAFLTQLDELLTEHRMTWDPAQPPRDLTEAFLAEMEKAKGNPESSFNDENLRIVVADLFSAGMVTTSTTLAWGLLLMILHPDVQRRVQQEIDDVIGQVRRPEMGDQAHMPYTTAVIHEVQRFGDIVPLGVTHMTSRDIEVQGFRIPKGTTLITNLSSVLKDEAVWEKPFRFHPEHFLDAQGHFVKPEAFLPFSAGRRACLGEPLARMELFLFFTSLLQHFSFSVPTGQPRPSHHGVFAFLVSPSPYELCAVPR

Rattus norvegicus [33] = test: Cardiovascular toxicity in rat assessed as decrease in body temperature at 10 mg/kg, po measured over 14 days; type: organism-based; conditions: in vivo, 336 h
[34] = Fraction unbound in rat plasma; type: ADME, cell-free
[35] = Fraction unbound in dog plasma; type: ADME, cell-free, Canis lupus familiaris
[36] = Intrinsic clearance in dog hepatocytes assessed per 10^6 cells; type: ADME, cell-based, Canis lupus familiaris, Hepatocyte; conditions: read-out: CLH
[37] = Fraction unbound in human plasma; type: ADME, cell-free
Cytochrome P450 2C8 = Cytochrome P450 2C8 (Homo sapiens, UniProt P10632); test: Inhibition of CYP2C8 (unknown origin); type: ADME
Sequence of Cytochrome P450 2C8 (P10632 whole entry): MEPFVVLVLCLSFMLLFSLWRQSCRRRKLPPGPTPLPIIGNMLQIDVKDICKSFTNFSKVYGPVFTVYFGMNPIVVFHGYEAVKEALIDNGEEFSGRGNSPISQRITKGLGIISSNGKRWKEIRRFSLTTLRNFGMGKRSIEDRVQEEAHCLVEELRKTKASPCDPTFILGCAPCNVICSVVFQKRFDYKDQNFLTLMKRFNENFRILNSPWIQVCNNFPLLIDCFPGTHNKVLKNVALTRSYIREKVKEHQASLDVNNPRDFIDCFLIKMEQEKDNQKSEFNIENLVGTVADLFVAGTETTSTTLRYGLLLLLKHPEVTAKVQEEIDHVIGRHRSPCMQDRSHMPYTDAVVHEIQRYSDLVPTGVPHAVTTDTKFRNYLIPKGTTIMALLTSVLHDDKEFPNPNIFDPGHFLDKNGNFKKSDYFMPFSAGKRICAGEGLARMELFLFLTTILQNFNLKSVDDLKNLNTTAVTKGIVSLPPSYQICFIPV

[38] = Unbound Cmax in rat at 30 mg/kg, po administered as single dose measured on day 14; type: ADME, organism-based; conditions: in vivo
[39] = Drug metabolism in rat assessed as oxidation of chlorophenyl ring; type: ADME
[40] = Solubility of the compound at pH 6.5; type: physicochemical; conditions: buffer
[41] = Oral bioavailability in rat at 2.3 mg/kg; type: ADME, organism-based; conditions: in vivo
[42] = target: Solute carrier organic anion transporter family member 1B1 (Homo sapiens, UniProt Q9Y6L6); test: Drug uptake assessed as human OATP1B1-mediated drug accumulation by cell-based assay relative to wild type protein; type: ADME
Sequence of Solute carrier organic anion transporter family member 1B1 (Q9Y6L6 whole entry): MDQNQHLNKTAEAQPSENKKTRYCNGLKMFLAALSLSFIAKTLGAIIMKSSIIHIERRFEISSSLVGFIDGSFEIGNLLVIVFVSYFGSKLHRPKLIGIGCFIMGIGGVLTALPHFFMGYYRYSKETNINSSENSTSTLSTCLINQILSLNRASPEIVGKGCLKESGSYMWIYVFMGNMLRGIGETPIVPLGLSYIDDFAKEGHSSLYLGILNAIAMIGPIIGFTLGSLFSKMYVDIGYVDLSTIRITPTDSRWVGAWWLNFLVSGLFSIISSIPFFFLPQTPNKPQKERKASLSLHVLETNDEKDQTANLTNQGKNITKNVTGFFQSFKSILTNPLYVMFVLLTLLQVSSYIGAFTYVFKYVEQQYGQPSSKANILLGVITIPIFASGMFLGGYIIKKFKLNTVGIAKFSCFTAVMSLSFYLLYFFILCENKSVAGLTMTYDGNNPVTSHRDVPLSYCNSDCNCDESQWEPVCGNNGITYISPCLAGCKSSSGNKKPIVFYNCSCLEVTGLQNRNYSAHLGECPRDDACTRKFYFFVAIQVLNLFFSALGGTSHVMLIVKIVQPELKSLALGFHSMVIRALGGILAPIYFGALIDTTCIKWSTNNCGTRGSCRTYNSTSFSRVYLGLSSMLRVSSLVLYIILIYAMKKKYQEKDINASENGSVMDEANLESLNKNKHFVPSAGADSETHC

Rattus norvegicus [43] = test: Toxicity in rat assessed as hypertrophy/hyperplasia of the urothelium at 300 mg/kg/day, po measured over 14 days by microscopic analysis; type: organism-based; conditions: in vivo, 336 h
[44] = target: Solute carrier organic anion transporter family member 1B3 (Homo sapiens, UniProt Q9NPD5); test: Drug uptake assessed as human OATP1B3-mediated drug accumulation by cell-based assay relative to wild type protein; type: ADME
Sequence of Solute carrier organic anion transporter family member 1B3 (Q9NPD5 whole entry): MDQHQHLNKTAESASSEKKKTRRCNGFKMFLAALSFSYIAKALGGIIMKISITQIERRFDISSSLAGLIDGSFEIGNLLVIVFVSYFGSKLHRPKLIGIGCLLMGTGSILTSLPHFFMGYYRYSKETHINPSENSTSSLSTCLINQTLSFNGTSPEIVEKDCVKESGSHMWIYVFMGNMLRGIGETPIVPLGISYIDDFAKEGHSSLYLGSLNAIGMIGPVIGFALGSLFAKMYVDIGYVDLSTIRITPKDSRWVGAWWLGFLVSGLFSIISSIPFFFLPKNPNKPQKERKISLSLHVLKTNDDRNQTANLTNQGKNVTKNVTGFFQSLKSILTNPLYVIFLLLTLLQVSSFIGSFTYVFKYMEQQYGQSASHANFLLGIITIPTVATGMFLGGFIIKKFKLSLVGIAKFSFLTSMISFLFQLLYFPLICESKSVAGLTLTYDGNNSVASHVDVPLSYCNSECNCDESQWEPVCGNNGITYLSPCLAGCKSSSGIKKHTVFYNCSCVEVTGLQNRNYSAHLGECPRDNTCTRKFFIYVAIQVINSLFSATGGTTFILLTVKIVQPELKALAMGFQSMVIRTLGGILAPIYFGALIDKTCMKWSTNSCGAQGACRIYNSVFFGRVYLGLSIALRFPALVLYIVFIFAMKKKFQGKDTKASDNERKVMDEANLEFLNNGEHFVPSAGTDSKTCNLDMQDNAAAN

Sequence of Cytochrome P450 2C19 (P33261 whole entry): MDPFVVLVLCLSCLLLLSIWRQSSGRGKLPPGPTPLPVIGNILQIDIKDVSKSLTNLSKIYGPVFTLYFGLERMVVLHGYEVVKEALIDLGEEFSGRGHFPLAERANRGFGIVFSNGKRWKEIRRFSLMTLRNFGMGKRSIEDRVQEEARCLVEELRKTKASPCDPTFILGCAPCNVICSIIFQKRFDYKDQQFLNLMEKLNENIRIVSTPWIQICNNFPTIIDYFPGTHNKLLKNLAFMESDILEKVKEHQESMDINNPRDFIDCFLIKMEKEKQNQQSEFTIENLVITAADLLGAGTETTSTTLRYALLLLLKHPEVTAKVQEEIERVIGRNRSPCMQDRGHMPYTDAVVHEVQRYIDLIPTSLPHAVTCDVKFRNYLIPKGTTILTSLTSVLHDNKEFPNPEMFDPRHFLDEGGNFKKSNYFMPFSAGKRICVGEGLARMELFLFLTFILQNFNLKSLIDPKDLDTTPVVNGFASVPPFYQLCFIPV

N#Cc1ccc(Oc2ccc(S(=O)(=O)Nc3ccc(F)cn3)cc2C#N)cc1Cl
Drug metabolism [1]: Metabolite_Detected | Drug metabolism [2]: Metabolite_Notdetected | IC50 (Cytochrome P450 2C19): 17.2 µM | hepatocyte CLint [3]: 10 µL/min/1e6 cells | Vd [4]: 0.25 L/kg | Activity [5]: Non-Toxic | Drug metabolism [6]: Metabolite_Detected | Activity (Rattus norvegicus [7]): Toxic | IC50 [8]: > 30 µM | IC50 [9]: 14 µM | pKa [10]: 5.8 | clearance [11]: 0.48 mL/min/kg | CL free [12]: 95 mL/min/kg | IC50 [13]: 0.012 µM | Activity (Rattus norvegicus [14]): Toxic | IC50 [15]: 14 µM | Ki [16]: 4.8 µM | Papp [17]: 16 ×10⁻⁶ cm/s | hepatocyte CLint [18]: 23 µL/min/1e6 cells | Activity (Canis familiaris [19]): Toxic | IC50 [20]: > 30 µM | Activity (Canis familiaris [21]): Toxic | Activity (Canis familiaris [22]): Non-Toxic | IC50 (Cytochrome P450 2C9): 4.2 µM | Drug metabolism [23]: Metabolite_Notdetected | microsomal CLint [24]: < 14 µL/min/mg | Activity (Rattus norvegicus [25]): Toxic | Activity [26]: 103 µM | Cave [27]: 123 nM | Activity (Canis familiaris [28]): Non-Toxic | Activity [29]: <= 300 mg kg-1 | fCmax [30]: 59 nM | half-life [31]: 6.7 h | CL renal [32]: 0.0001 mL/min/kg | IC50 (Cytochrome P450 2D6): > 30 µM | Activity (Rattus norvegicus [33]): Toxic | fraction unbound [34]: 0.0021 | fraction unbound [35]: 0.0041 | hepatocyte CLint [36]: < 6 µL/min/1e6 cells | fraction unbound [37]: 0.0012 | IC50 (Cytochrome P450 2C8): 11.9 µM | fCmax [38]: 179 nM | Drug metabolism [39]: Metabolite_Detected | solubility [40]: 7.7 µM (≈ 3.3 µg/mL) | bioavailability [41]: 100% | fold change (FC) [42]: 1.003 | Activity (Rattus norvegicus [43]): Toxic | fold change (FC) [44]: 1.067

From ChEMBL document CHEMBL3853264 (Medchemcomm, 2016)
